Broadly, the inhibition is the percentage by which the read-out fell short of the control. Broadly, the IC50 is the concentration that inhibits the measured activity by half.

The test system of series [1] is osteoclast-specific genes. Description: Quantitative real-time PCR of osteoclast-specific genes. The settings on record: Acp5, NFATc1, DC-STAMP, ATP6V0d2, MMP9 and Ctsk; 0, 1, 2, and 4 days. The format is cell-based, C57/BL6 mice. The text has this: Total RNA from BMM was isolated using QIAzol RNA lysis reagent (Qiagen Sciences, Valencia, CA, USA).
Specifically, FIGS. 5A to 5F show the results of measuring the relative mRNA levels of the indicated osteoclast-specific genes using qRT-PCR with or without 25-KR-03 treatment for 0, 1, 2, and 4 days. Black bars represent M-CSF and RANKL treatment groups ("Con") and gray bars correspond to 25-KR-03 treatment groups. Transcript levels were normalized to expression at day 0. All experiments were repeated three times.

The subject of series [2] is OVX-induced osteoporosis mouse model. Kind of series: OVX-induced osteoporosis mouse model (micro-CT, body weight). It counts as in vivo, C57BL/6 female mice. How it is done: Specific pathogen-free facilities were used to grow mice. To investigate the effects of 25-KR-03 in vivo, the inventors established an OVX-induced osteoporosis mouse model as previously described. Seven-week-old C57BL/6 female mice were divided into four groups (Sham, OVX, 25-KR-03, and PMSA-3-Ac). Among them, the OVX, 25-KR-03, and PMSA-3-Ac groups underwent OVX surgery.
After a 1-week recovery period, mice were intraperitoneally injected with 25-KR-03 or PMSA-3-Ac (20 mg/kg, dissolved in a mixture of 10 % Tween 80 and 10% DMSO) once daily for 4 weeks. The sham and control (OVX) groups received equal volumes of the mixture of 10 % Tween 80 and 10% DMSO once daily for 4 weeks. Body weights of the mice were measured weekly. When the mice were euthanized, the femurs were isolated and fixed in 4.0% paraformaldehyde for micro-computed tomography (micro-CT) analysis as previously performed.
Micro-CT scanning was performed as in previous studies. The Quantum GX Micro-CT imaging system (PerkinElmer, Hopkinton, MA, USA) was used at the Korea Basic Science Institute (Gwangju, Korea).

The subject of series [3] is osteoclast bone resorption. Kind of series: Bone resorption analysis on fluoresceine amine-labeled calcium phosphate plates. The format is cell-based, C57/BL6 mice. How it is done: (§1) Bone resorption analysis was performed by a conventional method. Briefly, BMMs (2 × 10^4 cells/well) were seeded into a coated 48-well plate provided in the kit. After culturing with or without the indicated doses of 25-KR-03 and PMSA-3-Ac until mature osteoclasts were observed, 100 µL supernatant was harvested from each well and placed in a black polypropylene 96-well microplate. Fluorescence intensity was measured using a SpectraMax i3x fluorescence plate reader (excitation wavelength 485 nm; emission wavelength 535 nm). The decalcified pit area was visible under a microscope and calculated using ImageJ software. F-actin rings were visible using a rhodamine-coupled phalloidin staining assay (Thermo Fisher Scientific) as previously described.
(§2) In FIG. 4C, the fluorescence intensity of each group after 6 days was measured at excitation and emission wavelengths of 485 nm and 535 nm, respectively. All experiments were repeated three times.

The subject of another series is RANKL-induced BMM. Description: In vitro osteoclast formation assay (TRAP staining / TRAP activity). The format is cell-based, C57/BL6 mice. How it is done: (§3) Bone marrow cells (BMC) were obtained from 8-week-old female C57/BL6 mice by washing femurs and tibias with α-MEM. BMCs were then cultured overnight in full α-MEM containing 10% FBS, 100 U/mL penicillin, and 100 µg/mL streptomycin. Non-attached cells were collected and cultured with M-CSF (30 ng/ mL) for 3 days, and then the attached cells were used as BMM. All animal experiments were approved by Chonnam National University IACUC (approval number: CNU IACUC-YB-2019-49).
(§4) To generate osteoclasts, BMMs were harvested and cultured in a complete medium containing 30 ng/mL M-CSF and 50 ng/mL RANKL with or without compounds for approximately 4 days to obtain mature osteoclasts. Differentiated osteoclasts were fixed with 4% formalin for 15 minutes, and then the cells were stained using a TRAP staining kit. The spread of osteoclast areas could be observed under the microscope. The viability of BMM (1 × 10^4 cells/well) was assessed in a 96-well plate using a cell viability assay kit as previously described.

A further series has as its system BMDMs. Kind of series: Cell viability assay of BMM/BMDMs. The settings on record: below 4 µM; 48 hours. The format is cell-based, C57/BL6 mice. How it is done: as §3, §4
In series [4] the test system is human IPSC-derived macrophages. Description: Human osteoclast differentiation model (TRAP staining / TRAP activity). It counts as cell-based. The settings on record: 10 days; 50 ng/mL hM-CSF and 100 ng/mL hRANKL. The protocol:
However, it is unclear whether 25-KR-03 has an inhibitory effect on human osteoclast differentiation. Accordingly, a human osteoclast differentiation model was established using human IPSC-derived macrophages. Cells were incubated with 50 ng/mL human M-CSF and 100 ng/mL RANKL to induce mature osteoclast formation.
Specifically, in FIG. 7A, the inhibitory effect of 25-KR-03 on human osteoclast differentiation was analyzed through TRAP staining. Human IPSC-derived macrophages were treated with the indicated concentrations of 25-KR-03 for 10 days in the induction medium containing 50 ng/mL hM-CSF and 100 ng/mL hRANKL. After the formation of multinucleated osteoclasts, TRAP staining was performed to visualize the formed osteoclasts.

In series [5] the test system is F-actin belts of mature osteoclasts. Kind of series: F-actin ring immunofluorescence analysis (phalloidin staining). The format is cell-based, C57/BL6 mice. The protocol:
as §1, §2

Another series concerns NFATc1. Description: Western blotting analysis of osteoclast proteins and NFATc1 nuclear translocation. It counts as cell-based, C57/BL6 mice. How it is done: Total protein was extracted from osteoclasts and processed by a conventional method. To obtain total cell lysates, cells were lysed in ice-cold RIPA buffer for 30 min. After measuring the total protein concentration using the Enhanced BCA Protein Assay Kit, the protein was separated using 8-12% SDS-PAGE and transferred to a polyvinylidene fluoride membrane. Next, the membrane was blocked using 5% skim milk and incubated with a primary antibody (1:2,000 dilution) overnight. After incubation with a secondary antibody (1:2,000 dilution) for 1 hour, the membrane was washed and developed using an enhanced chemiluminescence (ECL) buffer as previously described. Relative protein expression was calculated by densitometric analysis using Image J software.
Specifically, in FIG. 6A, immunoblotting was performed for analysis. Culture was performed with or without 25-KR-03 for the indicated days in induction medium. […] GAPDH/LaminB1 was used as a loading control.
(In general: Immunoblotting shows a protein as a band on a membrane.)

`COC(=O)c1cccc(NCC(=O)Nc2ccccc2Sc2ccccc2)c1` [Compound 25-KR-03, Methyl 3-((2-oxo-2-((2-(phenylthio)phenyl)amino)ethyl)amino)benzoate]: the “relative mRNA expression levels of RANKL-induced osteoclastogenesis-related genes” value in series [1] was “obviously decreased”. In addition, the “prevention of bone loss (Tb.Th and BMD values, micro-CT of femur)” value in series [2] (20 mg/kg intraperitoneally once daily for 4 weeks after surgery, compared with the OVX group) is reported as “slight but significant prevention of bone loss”. Also, the body weight result in series [2] (20 mg/kg intraperitoneally once daily, 4 weeks) is listed as “no significant weight reduction”. Also, the resorption pit area result in series [3] (0.5, 1, and 2 µM, M-CSF and RANKL, 6 days) is listed as “significantly reduced”. The fluorescence intensity result in series [3] (dose-dependent manner, 6 days, excitation 485 nm, emission 535 nm) is on record as “reduced”. Besides, the “bone resorption inhibition compared with control inhibitor” value in series [3] (versus PMSA-3-Ac) was “more effective than PMSA-3-Ac”. In addition, in the series on RANKL-induced BMM (2 µM, TRAP staining), the “inhibitory effect on osteoclast differentiation” value is given as “almost complete inhibition”. In addition, in the series with RANKL-induced BMM (Mus musculus, 1 µM, osteoclast differentiation in RANKL-induced BMM, mean ± SD from at least three experiments, read-out: Inhibition rate (%)), the inhibition at 1 µM came out at 72.3 ± 6.33%. For the same compound, the inhibition at 2 µM in the series with RANKL-induced BMM (Mus musculus, 2 µM, osteoclast differentiation in RANKL-induced BMM, mean ± SD from at least three experiments, read-out: Inhibition rate (%)) came to 99.89 ± 0.04%. This compound also returned a half-maximal inhibitory concentration (IC50) with RANKL-induced BMM (Mus musculus, Differentiation of BMDM, based on TRAP activity, 0 to 4000 nM) of 323 nM. Moreover, in the series with RANKL-induced BMM (RANKL-induced, concentration range up to 4000 nM), the “formation of multinucleated mature osteoclasts” value is given as “completely blocked”. Besides, the “cell viability of BMDMs” value in the series on BMDMs was “no significant effect”. Moreover, the “inhibitory effect on human osteoclast differentiation” value in series [4] was “has bioactivity in both mouse and human cells”. Moreover, the actin ring formation entry in series [5] (at the indicated doses, RANKL/M-CSF-induced) was “inhibited”. In addition, the “osteoclast F-actin belt formation, inhibition compared with control inhibitor” value in series [5] (versus PMSA-3-Ac (10 µM)) is on record as “more strongly than PMSA-3-Ac”. Further, the “NFATc1 protein levels in the nucleus” value in the series on NFATc1 (BMDMs, 48 hours) is given as “significantly reduced”. In the series on NFATc1 (BMDMs, 48 hours, not significant), the “NFATc1 protein levels in the cytoplasm” value is listed as “slightly increased”. In addition, the “protein expression of Ctsk” value in the series on NFATc1 (Western blotting) is “significantly inhibited”. Besides, the “protein expression of NFATc1, Traf6, c-src, GSK3β and calcineurin A” value in the series on NFATc1 (Western blotting, compared to the control group) is “no significant effect”.
